Measured values reported in US4029671A, “3-[(5-nitro-2-imidazolyl)pyrazol-5-yl]oxamic acid derivatives” (priority 1976, dated 1977).
Counter-ions that a name gives are not always drawn.

Legend:
Type in all cases: cell-based
[1] = test system: Clostridium septicum 1128; assay: Agar dilution susceptibility of anaerobic bacteria (Chart 1); details: 37° C.
Description: The susceptibility of anaerobic bacteria, both gram positive and gram negative, to a representative number of the novel compounds of this application was determined using the agar dilution method. The bacteria used were isolated from patients hospitalized at the Indiana Univerisity Medical Center. The isolates were identified in the anaerobe laboratory of the Medical Center by the criteria established by Dowell et al., Laboratory Methods in Anaerobic Bacteriology. Public Health Serv. Publ. NO. 1803 (1968) [Center for Disease Control, Atlanta, Ga.]; and by Smith et al., The Pathogenic Anaerobic Bacteria, pages 96- 136 (1968) [Charles C. Thomas, Publisher, Springfield, Ill.]. All the organisms were maintained in chopped meat glucose medium (Scott Labs) at room temperature.
The method used for the agar dilution tests was based on the studies of Sutter et al., Antimicrob. Ag. Chemother. 3, 188-193 (1973). The strains of anaerobic bacteria were grown in 16×× 120 mm. tubes for 16 to 18 hours in Thioglycolate medium without indicator-- 135C (Becton, Dickinson and Co.), to which was added 5 mcg. of hemin per milliliter prior to autoclaving, plus 1 mg. of sodium bicarbonate and 0.1 mcg. of filter-sterilized menadione per milliliter after autoclaving. The strains were adjusted to the turbidity of the No. 1 McFarland standard in Thioglycolate medium without indicator-- 135C containing an additional 0.13 percent Bacto-agar (Difco). Each strain was then applied to the surface of the petri plate (100 mm× 15 mm.) by means of a replicator.
For the agar dilution studies, two-fold dilutions of the test compounds were prepared in deionized water to which was then added laked sheep blood and filter-sterilized menadione so the concentrations after the agar dilution were 5 percent and 10 mcg./ml. respectively. An equal volume of double strength Brucella agar (Becton, Dickinson and Co.) was mixed with each dilution in a water bath held at 50° C. and then poured onto the petri dishes.
All of the procedures were done inside a plastic glove box, except for the incubation of the growth tubes and the pouring of the plates. After the plates hardened, they were put inside the glove box for a minimum of 2 hours before they were inoculated. Generally, the glove box procedures of Aranki et al., Applied Microbiology 17, 568-576 (1969), were followed, but the following modifications were used. Dry materials were introduced into the glove box by evacuating the lock to 28 inches of mercury and filling once with nitrogen gas, followed by evacuating in the same manner and filling with an 80 percent nitrogen plus 10 percent CO2 plus 10 percent hydrogen gas mixture. Liquid media and agar plates were introduced into the glove box by evacuating the lock to 10 inches of mercury and filling with gas four times. The nitrogen gas was used to fill the lock for the first two cycles of evacuation, with the gas mixture described above used for the final two fillings.
All the plates were incubated at 37° C. in Gas Pak jars (Becton, Dickinson and Co.) containing palladium-coated alumina catalysts (reactivated after each use). The results of the agar dilution tests were read after about 24 hours of incubation. The minimum inhibitory concentration (MIC) was recorded as the lowest concentration of test compound at which there was no growth.
The test compounds are identified by the number of the example describing their preparation. The antibiotics clindamycin (C), and erythromycin (E) were also run simultaneously with the novel compounds of this application,for comparison purposes, and the results are included in Chart 1 below.

[2] = test system: Peptostreptococcus intermedius 1264; assay: as above; details: agar dilution, 37° C., Peptostreptococcus intermedius 1264
[3] = test system: Actinomyces israelii W855; assay: as above; details: Actinomyces israelii, W855, 24 h, read-out: 24 Hr. MIC, agar dilution, 37° C.
[4] = test system: Peptococcus asaccharolyticus 1302; assay: as above; details: agar dilution, 37° C., Peptococcus asaccharolyticus 1302
[5] = test system: Eubacterium aerofaciens 1235; assay: as above; details: agar dilution, 37° C., Eubacterium aerofaciens 1235
[6] = test system: Clostridium perfringens 81; assay: microbe, parasite or virus in culture; details: agar dilution, 37° C.
Peptococcus prevoti 1281 = assay: Agar dilution susceptibility of anaerobic bacteria (Chart 1); details: agar dilution, 37° C.
[7] = test system: Propionibacterium acnes 79; assay: as above; details: Cutibacterium acnes, 79, 24 h, read-out: 24 Hr. MIC
[8] = test system: Bacteroides fragilis sp. fragilis 1936B; assay: as above; details: agar dilution, 37° C., Bacteroides fragilis sp. fragilis 1936B
[9] = test system: Fusobacterium symbiosum 1470; assay: as above; details: agar dilution, 37° C., Fusobacterium symbiosum 1470
[10] = test system: Peptostreptococcus anaerobius 1428; assay: as above; details: agar dilution, 37° C., Peptostreptococcus anaerobius 1428
[11] = test system: Bacteroides melaninogenicus 1856/28; assay: as above; details: agar dilution, 37° C., Bacteroides melaninogenicus 1856/28
[12] = test system: Fusobacterium necrophorum 6054A; assay: as above; details: agar dilution, 37° C., Fusobacterium necrophorum 6054A
[13] = test system: Bacteroides melaninogenicus 2736; assay: as above; details: agar dilution, 37° C., Bacteroides melaninogenicus 2736
[14] = test system: Bacteroides vulgatis 1211; assay: as above; details: agar dilution, 37° C., Bacteroides vulgatis 1211
[15] = test system: Bacteroides corrodens 1874; assay: as above; details: agar dilution, 37° C., Bacteroides corrodens 1874
[16] = test system: Bacteroides fragilis sp. fragilis 1470; assay: as above; details: agar dilution, 37° C.; Bacteroides fragilis sp. fragilis 1470; sodium salt
[17] = test system: Bacteroides fragilis sp. thetaiotaomicron 1438; assay: as above; details: agar dilution, 37° C.; Bacteroides fragilis sp. thetaiotaomicron 1438; sodium salt
[18] = test system: Bacteroides fragilis sp. fragilis 9; assay: as above; details: agar dilution, 37° C.; Bacteroides fragilis sp. fragilis 9; sodium salt
[19] = test system: Bacteroides fragilis sp. fragilis 112; assay: as above; details: agar dilution, 37° C.; Bacteroides fragilis sp. fragilis 112; sodium salt
[20] = test system: Bacteroides fragilis sp. fragilis 107; assay: as above; details: agar dilution, 37° C.; Bacteroides fragilis sp. fragilis 107; sodium salt
[21] = test system: Bacteroides fragilis sp. thetaiotaomicron 1900A; assay: as above; details: agar dilution, 37° C.; Bacteroides fragilis sp. thetaiotaomicron 1900A; sodium salt
[22] = test system: Bacteroides fragilis sp. fragilis 1451; assay: as above; details: agar dilution, 37° C.; Bacteroides fragilis sp. fragilis 1451; sodium salt
[23] = test system: Bacteroides fragilis sp. fragilis 62; assay: as above; details: agar dilution, 37° C.; Bacteroides fragilis sp. fragilis 62; sodium salt
[24] = test system: Bacteroides fragilis sp. fragilis 108; assay: as above; details: agar dilution, 37° C.; Bacteroides fragilis sp. fragilis 108; sodium salt
[25] = test system: Bacteroides fragilis sp. fragilis 111; assay: as above; details: agar dilution, 37° C.; Bacteroides fragilis sp. fragilis 111; sodium salt
[26] = test system: Bacteroides fragilis sp. vulgatis 1563; assay: as above; details: agar dilution, 37° C.; Bacteroides fragilis sp. vulgatis 1563; sodium salt
[27] = test system: Bacteroides fragilis sp. fragilis 2; assay: as above; details: agar dilution, 37° C.; Bacteroides fragilis sp. fragilis 2; sodium salt
[28] = test system: Bacteroides fragilis sp. fragilis 103; assay: as above; details: agar dilution, 37° C.; Bacteroides fragilis sp. fragilis 103; sodium salt
[29] = test system: Bacteroides fragilis sp. fragilis 113; assay: as above; details: agar dilution, 37° C.; Bacteroides fragilis sp. fragilis 113; sodium salt
[30] = test system: Bacteroides fragilis sp. fragilis 1877; assay: as above; details: agar dilution, 37° C.; Bacteroides fragilis sp. fragilis 1877; sodium salt
[31] = test system: Bacteroides fragilis sp. fragilis 110; assay: as above; details: agar dilution, 37° C.; Bacteroides fragilis sp. fragilis 110; sodium salt

CCOC(=O)C(=O)Nc1c(C#N)c(-c2ncc([N+](=O)[O-])n2C)nn1C [Example 4, N-[4-Cyano-1-methyl-3-(1-methyl-5-nitroimidazol-2-yl)pyrazol-5-yl]oxamic acid, ethyl ester, ammonium salt]
24 Hr. MIC ([1]; ammonium salt): 16 µg/mL
24 Hr. MIC ([2]; ammonium salt): ≤ 0.5 µg/mL
MIC [3]: > 128 µg/mL
24 Hr. MIC ([4]; ammonium salt): ≤ 0.5 µg/mL
24 Hr. MIC ([5]; ammonium salt): ≤ 0.5 µg/mL
24 Hr. MIC ([6]; ammonium salt): ≤ 0.5 µg/mL
24 Hr. MIC (Peptococcus prevoti 1281; ammonium salt): 32 µg/mL
MIC [7]: > 128 µg/mL
24 Hr. MIC ([8]; ammonium salt): ≤ 0.5 µg/mL
24 Hr. MIC ([9]; ammonium salt): ≤ 0.5 µg/mL
24 Hr. MIC ([10]; ammonium salt): ≤ 0.5 µg/mL
24 Hr. MIC ([11]; ammonium salt): 1.0 µg/mL
24 Hr. MIC ([12]; ammonium salt): ≤ 0.5 µg/mL
24 Hr. MIC ([13]; ammonium salt): ≤ 0.5 µg/mL
24 Hr. MIC ([14]; ammonium salt): ≤ 0.5 µg/mL
24 Hr. MIC ([15]; ammonium salt): ≤ 0.5 µg/mL

Cn1nc(-c2ncc([N+](=O)[O-])n2C)c(C#N)c1NC(=O)C(=O)NN [Example 8, 5-[4-Cyano-1-methyl-3-(1-methyl-5-nitroimidazol-2-yl)pyrazol-5-yl]semioxamazide, sodium salt]
MIC [3]: > 128 µg/mL
24 Hr. MIC ([4]; sodium salt): 1.0 µg/mL
24 Hr. MIC ([5]; sodium salt): 4 µg/mL
24 Hr. MIC ([6]; sodium salt): 2 µg/mL
24 Hr. MIC (Peptococcus prevoti 1281; sodium salt): 32 µg/mL
MIC [7]: > 128 µg/mL
24 Hr. MIC ([8]; sodium salt): 1.0 µg/mL
24 Hr. MIC ([9]; sodium salt): 0.5 µg/mL
24 Hr. MIC ([10]; sodium salt): 0.5 µg/mL
24 Hr. MIC ([11]; sodium salt): 16 µg/mL
24 Hr. MIC ([12]; sodium salt): 0.5 µg/mL
24 Hr. MIC ([13]; sodium salt): 0.5 µg/mL
24 Hr. MIC ([14]; sodium salt): 1.0 µg/mL
24 Hr. MIC ([15]; sodium salt): 1.0 µg/mL

Cn1nc(-c2ncc([N+](=O)[O-])n2C)c(C#N)c1NC(=O)C(=O)c1ccccc1 [Example 11, N-[4-Cyano-1-methyl-3-(1-methyl-5-nitroimidazol-2-yl)pyrazol-5-yl]-2-phenylglyoxylamide, sodium salt]
24 Hr. MIC [16]: 0.06 µg/mL
24 Hr. MIC ([1]; sodium salt): 0.25 µg/mL
24 Hr. MIC [17]: 0.125 µg/mL
24 Hr. MIC [18]: 0.06 µg/mL
24 Hr. MIC ([2]; sodium salt): 32 µg/mL
24 Hr. MIC [19]: 0.06 µg/mL
24 Hr. MIC [20]: 0.06 µg/mL
24 Hr. MIC [21]: 0.125 µg/mL
24 Hr. MIC ([5]; sodium salt): 0.5 µg/mL
24 Hr. MIC ([6]; sodium salt): 0.5 µg/mL
24 Hr. MIC (Peptococcus prevoti 1281; sodium salt): 2 µg/mL
24 Hr. MIC [22]: 0.125 µg/mL
24 Hr. MIC [23]: 0.06 µg/mL
24 Hr. MIC ([8]; sodium salt): 0.06 µg/mL
24 Hr. MIC ([10]; sodium salt): 0.25 µg/mL
24 Hr. MIC [24]: 0.06 µg/mL
24 Hr. MIC [25]: 0.06 µg/mL
24 Hr. MIC ([11]; sodium salt): 16 µg/mL
24 Hr. MIC [26]: 0.25 µg/mL
24 Hr. MIC ([12]; sodium salt): 0.25 µg/mL
24 Hr. MIC [27]: 0.06 µg/mL
24 Hr. MIC ([13]; sodium salt): ≤ 0.03 µg/mL
24 Hr. MIC ([14]; sodium salt): 1.0 µg/mL
24 Hr. MIC [28]: 0.06 µg/mL
24 Hr. MIC [29]: 0.125 µg/mL
24 Hr. MIC [30]: 0.06 µg/mL
24 Hr. MIC [31]: 0.06 µg/mL
24 Hr. MIC ([15]; sodium salt): 0.25 µg/mL
